Measured values published in patent US7648964B2, “Use of lacritin in promoting ocular cell survival” (University of Virginia Patent Foundation, priority 2004, dated 2010).
“Also recorded” adds a separate entry of the source.

Columns and labels:
PKCα [1] = assay: PKCα translocation in HSG cells (immunofluorescence, fractionation); type: cell-based, human; conditions: for effect on lacritin-dependent PKCα translocation: pertussis toxin 100 ng/ml, Go 6976, U73122, U73343, cyclosporine 1 μM, nifedipine 10 μM
Source text: In order to dissect the molecular pathways leading to the cell survival by lacritin, protein kinases and transcriptional factors were studied by Western blotting and immunofluorescence microscopy.
Images were acquired at 2-3 s intervals using LaserSharp2000 software (Bio-Rad) and store on disc for later analysis.

NFATC1 = NFATC1 translocation in HSG cells (immunofluorescence); type: cell-based, human; conditions: cyclosporine 1 μM; nifedipine 10 μM
Source text: In order to dissect the molecular pathways leading to the cell survival by lacritin, protein kinases and transcriptional factors were studied by Western blotting and immunofluorescence microscopy. […] On the other hand, there were increased activities of transcriptional factors such as nuclear factor of activated T-cells (NFAT) and NF-kappaB. In FIG. 4, translocation of PKC alpha and NFAT was detected by immunofluorescence coupled with confocal microscopic imaging. In resting HSG cells (left three images), PKC alpha distributes mainly in cytosol and membrane. Similarly, NFATc1 was also found to localize largely in cytosol. Cellular co-location of PKC alpha and NFATc1 is apparent upon merging the two immunofluorescent images, as the merged cy3 and FITC labels produce distinctive yellow color.
Images were acquired at 2-3 s intervals using LaserSharp2000 software (Bio-Rad) and store on disc for later analysis. For translocation assays, HSG cells […] phorbol 12-myristate 13-acetate, […], then washed with phosphate-buffered saline, formaldehyde-fixed, blocked with phosphate-buffered saline containing 1% bovine serum albumin and 10% goat serum, incubated with anti-PKCα (C-20) or anti-NFATC1 (mab 7A6) (both from Santa Cruz Biotechnology Inc.; Santa Cruz, Calif.) followed by secondary Cy3-, FITC- or Alexa488-labeled antibodies and confocal microscopic visualization (Bio-Rad Radiance2100).

HSG cells = assay: Calcium mobilization imaging in HSG cells (Fluo-4); type: cell-based, human; conditions: for effect on lacritin-stimulated calcium mobilization: preincubation: pertussis toxin 100 ng/ml, or siRNA
Procedure: Cells were seeded at 1.4×10^4 HSG cells/mm^2 or 0.7×10^4 HSG cells/mm^2 on Matrigel-coated (100 μg/ml; BD Biosciences; San Diego Calif.) coverslips to respectively achieve 70-80% confluency after overnight or 48 h growth in 6-well plates containing phenol red-free Dulbecco's modified Eagle's medium with 10% fetal calf serum.
Other cells were incubated (0.7×10^4HSG cells/mm^2 overnight plating) with 100 ng/ml pertussis toxin (Calbiochem; San Diego Calif.) in phenol red-free Dulbecco's modified Eagle's medium with 10% fetal calf serum; or vehicle alone). Cells were washed with calcium-free/phenol red-free Hanks basic salt solution, 20 mM N-2-hydroxyethylpiperazine-N′-2-ethane sulfonic acid and then incubated for 1 h at room temperature with the same solution containing fluo-4 μM at 4 μM (FluoroPure grade [Molecular Probes; Eugene Oreg.] dissolved in DMSO plus 20% Pluronic F-127). Cells were washed three times for 60 min at room temperature with calcium-free/phenol red-free Hanks basic salt solution with 5 mM Ca^2+ or 5 mM EGTA. Temperature was stabilized for 5 min at 37° C. coverslips were placed on the stage of a TE-200 epifluorescent microscope (Bio-Rad Radiance2100 confocal/multiphoton system using Plan Fluor 60×NA 1.4 Oil IR objective lens [Bio-Rad, Hercules Calif.] as part of the W. M. Keck Center for Cellular Imaging, University of Virginia), subjected to a 488 nm argon laser light source with emission at 528 nm. Baseline monitoring was followed by addition of lacritin or deletion fragments in phenol red-free Hanks basic salt solution.

PKCα [2] = assay: Phospho-PKCα blot of HSG cell lysates; type: cell-based, human; conditions: for effect on lacritin-dependent PKCα dephosphorylation: pertussis toxin 100 ng/ml, Go 6976, U73122, U73343 1 μM
Procedure: (§1) For phosphotyrosine blotting and mitogenesis assays, cells in serum-containing media were seeded overnight in 24-well plates at a density of 0.5×10^5 cells/mm^2 corresponding to 20-30% confluency after cell attachment, incubated in serum-free media without supplements for 24 h (phosphotyrosine) or washed with serum-free media without supplements three times (mitogenesis) and incubated with lacritin (1-1000 nM), or positive controls EGF (1.6 nM) and 10% fetal bovine serum, or negative controls bovine serum albumin or no additive in serum-free media without supplements for the indicated times (phosphotyrosine) or 30 h (mitogenesis). For phosphotyrosine assays, cells were extracted in 1% NP40 containing sodium vanadate (2 mg/ml), DTT (5 mg/ml), protease inhibitors, 50 mM HEPES, 100 mM NaCl, and 2 mM EDTA; then separated by 10% SDS PAGE, transferred and blotted. The following antibodies (Cell Signaling Technology, Beverly Mass.) were tested: antiphosphotyrosine antibody (P-Tyr-100), anti-phospho-PKC αβII, anti-PKCα, anti-phospho-PKCδ, anti-phospho-PKC (pan), anti-p44/42 MAPK, anti-phospho-Raf, anti-phospho-SAPK/JNK, anti-phospho-p38 Map kinase, anti-phospho-Raf, anti-phospho-Akt, anti-phospho-CaMKII, anti-phospho-MARCKS, or anti-tubulin (loading control). After washing, bound antibodies were detected with peroxidase-labeled secondary antibody and ECL. With the exception of at least nine proteins in the P-Tyr-100 blot (FIG. 1), none of the effectors tested above appeared to be phospho-activated during lacritin signaling (not shown). For mitogenesis (Hussaini et al., '00), [^3H]-thymidine (2 mCi/ml) was added for the next 6 h. Incorporation was stopped with ice-cold phosphate buffered saline and followed by addition of cold and then room temperature trichloracetic acid (10%) for 10 min each, washing of cells with phosphate buffered saline, solubilization with 1 N sodium hydroxide, neutralization with 1 N hydrochloric acid, addition of scintillation fluid and then quantitation in a scintillation counter. To deplete PKCα in HSG cells, a pool of four PKCα-specific siRNAs (100 nM) were transfected via LipofectAMINE 2000 in Opti-MEMI Reduced Serum Medium (Invitrogen, Grand Island N.Y.) without serum and antibiotics according to manufacturer's instructions. Each of the four siRNAs was also individually transfected. In negative controls, cells were transfected with a pool of four lamin-specific siRNAs (Upstate LLC, Charlottesville Va.; Dharmacon Inc, Lafayette Colo.). Seventy-two hours post-transfection, mitogenesis was assessed by co-addition of 10 […] lacritin and [^3H]-thymidine (2 mCi/ml) (Amersham, Piscataway N.J.) for 24 hrs. PKCα depletion was confirmed by Western blotting.
We imaged PKCα in cells 15 min after treatment (FIG. 8). Nonmitogenic construct/fragment C-25 (10 nM) had no effect, leaving PKCa diffusely distributed throughout the cytoplasm. […] The phosphorylation state of PKCα influences its translocation site. Hyperphosphorylated PKCα becomes associated with the plasma membrane whereas hypophosphorylated or dephosphorylated PKCα is known to translocate to the perinuclear Golgi region. To determine if the latter is true and if so over what time course, we treated cells with lacritin, N-24 and C-25, and then blotted cell lysates for phospho-PKC ? (FIG. 8B). 10 nM lacritin promotes PKC ? dephosphorylation within 1 min of addition. This form is sustained for at least 15 min, but by 30 min has returned to baseline phosphorylation. Dephosphorylation triggered by increasing molar levels of lacritin or N-24 mirrored the proliferation response with optimal dephosphorylation at 10 nM. Non-mitogenic C-25 had no effect, whereas positive control 4β-phorbol 12-myristate 13-acetate-promoted hyperphosphorylation.

[3] = system: human corneal epithelial (HCE) cell line; assay: TNF-α-induced cell death in HCE cells (MTT cell viability); type: cell-based
Procedure: (§2) Lacritin-induced proliferation and calcium signaling was studied in the human corneal epithelial (HCE) cell line. HCE cells were grown at 37° C. in DMEM F/12 supplemented with 10% FBS and 50 μg/ml gentamicin. Each experiment was done in a dose- and time-dependent manner using TNF-α (5-20 ng/ml) and lacritin (1-10 nM). Cell viability was measured spectrophotometrically at an absorbance of 570 nm using the MTT assay. Caspase-8 activity was detected fluorometrically by measuring cleavage of the fluorogenic substrate IETD-pNA at an excitation wavelength of 405 nm. Lacritin-induced cell proliferation was studied by H3-thymidine incorporation and via fluorescence-based detection of PKC, PLC and cAMP. Calcium signaling was detected by confocal microscopy of Fluo-4 loaded cells.

caspase-8 = assay: Caspase-8 activity in human corneal epithelial cells treated with TNF-α; type: cell-based
Procedure: FIG. 12 graphically illustrates the ability of lacritin polypeptides to block TNFα induced caspase-8 activity in human corneal epithelial cells. The ordinate represents relative fluorescence units. White bars indicate 1 hour and diagonally-hatched bars indicate 6 hours.
as §2

caspase-9 = assay: Caspase-9 activity in human corneal epithelial cells treated with TNF-α; type: cell-based
Procedure: FIG. 13 graphically illustrates the ability of lacritin polypeptides (10 nM) to block TNFα induced caspase-9 activity in human corneal epithelial cells. The ordinate represents relative fluorescence units. White bars indicate 6 hours and diagonally-hatched bars indicate 9 hours.
Caspase-9 activity was measured in cells treated with various combinations of TNF-α, fragments of lacritin, and the PKC inhibitor Go6976. […] The PKC-α inhibitor Go6976 and C-25 fail to block this increase of the downstream initiator caspase-9.

[4] = system: human salivary ductal (HSG) cells; assay: 3H-thymidine uptake mitogenesis assay; type: cell-based; conditions: 10 nM; compared to intact lacritin
Procedure: as §1

## C/C=C(/C)C(=O)O[C@H]1C(C)=C2[C@H]([C@@H]1OC(=O)CCCCCCC)[C@@](C)(OC(C)=O)C[C@H](OC(=O)CCC)[C@@]1(O)[C@H]2OC(=O)[C@@]1(C)O [thapsigargin]
PKCα [1]
  effect on lacritin-dependent PKCα translocation: inhibited
NFATC1
  effect on lacritin-dependent NFATC1 translocation: inhibited

## C[N+](C)(C)CCOC(N)=O [carbachol]
HSG cells; positive control replacing lacritin
  calcium mobilization after pertussis toxin preincubation: full calcium mobilization

## O=C(O)CN(CCOCCOCCN(CC(=O)O)CC(=O)O)CC(=O)O [EGTA]
NFATC1
  effect on lacritin-dependent NFATC1 translocation: non-inhibitory

## pertussis toxin
PKCα [1]
  effect on lacritin-dependent PKCα translocation: inhibited
NFATC1
  effect on lacritin-dependent NFATC1 translocation: inhibited
HSG cells; U73122 1 μM, Go 6976 1 μM
  effect on lacritin-stimulated calcium mobilization: completely inhibited
PKCα [2]
  effect on lacritin-dependent PKCα dephosphorylation: inhibited

## CCCCCCCCCCCCCC(=O)O[C@@H]1[C@@H](C)[C@@]2(O)[C@@H](C=C(CO)C[C@]3(O)C(=O)C(C)=C[C@@H]23)[C@@H]2C(C)(C)[C@]12OC(C)=O [4β-phorbol 12-myristate 13-acetate, reference compound]
PKCα [1]; 15 min after treatment
  PKCα translocation: concentrated PKCα solely in the plasma membrane
PKCα [2]
  effect on PKCα phosphorylation: hyperphosphorylation

## [Gd] [gadolinium]
NFATC1
  effect on lacritin-dependent NFATC1 translocation: non-inhibitory

## COc1ccc2c(c1)CC[C@@H]1[C@@H]2CC[C@]2(C)[C@@H](NCCCCCCN3C(=O)C=CC3=O)CC[C@@H]12 [U73122]
PKCα [1]
  effect on lacritin-dependent PKCα translocation: inhibited
NFATC1
  effect on lacritin-dependent NFATC1 translocation: inhibited
HSG cells; U73122 1 μM, Go 6976 1 μM, even at 10 μM
  effect on carbachol-stimulated calcium mobilization: inhibited
HSG cells; U73122 1 μM, Go 6976 1 μM
  effect on lacritin-stimulated calcium mobilization: inhibited
PKCα [2]
  effect on lacritin-dependent PKCα dephosphorylation: inhibited

## TNF-α [reference compound]
[3]; after 18 hr
  TNF-α-induced cell death: 32.2±2.6%
[3]; after 30 hr
  TNF-α-induced cell death: 73.7±10%
caspase-8; TNF-α alone
  increase in caspase-8 activity: three-fold increase; also recorded: multifold increase
caspase-9; TNF-α alone
  increase in caspase-9 activity: multifold increase

## C-59: deletion of the 59 carboxy terminal amino acids of mature lacritin (SEQ ID NO:10) (EDASSDSTGADPAQEAGTSKPNEEISGPAEPASPPETTTTAQETSAAAVQGTAKVTSSRQ; homo sapiens)
[4]
  mitogenic activity of deletion constructs: inactive

## COc1ccc2c(c1)CC[C@@H]1[C@@H]2CC[C@]2(C)[C@@H](NCCCCCCN3C(=O)CCC3=O)CC[C@@H]12 [U73343]
PKCα [1]
  effect on lacritin-dependent PKCα translocation: full translocation and dephosphorylation
PKCα [2]
  effect on lacritin-dependent PKCα dephosphorylation: full translocation and dephosphorylation

B1: C-20: deletion of the 20 carboxy terminal amino acids of mature lacritin (SEQ ID NO:10) (protein)
chain: EDASSDSTGADPAQEAGTSKPNEEISGPAEPASPPETTTTAQETSAAAVQGTAKVTSSRQELNPLKSIVEKSILLTEQALAKAGKGMHGGVPGGKQFIE
modifications: homo sapiens
[4]
  mitogenic activity of deletion constructs: completely abrogated activity; also recorded: inactive

B2: C-10: deletion of the 10 carboxy terminal amino acids of mature lacritin (SEQ ID NO:10) (protein)
chain: EDASSDSTGADPAQEAGTSKPNEEISGPAEPASPPETTTTAQETSAAAVQGTAKVTSSRQELNPLKSIVEKSILLTEQALAKAGKGMHGGVPGGKQFIENGSEFAQKLL
modifications: homo sapiens
[4]
  mitogenic activity of deletion constructs: active
caspase-8
  effect on TNF-α-induced caspase-8 activity: blocked
caspase-9; lacritin polypeptides 10 nM
  effect on TNF-α-induced caspase-9 activity: blocked

B3: C-15: deletion of the 15 carboxy terminal amino acids of mature lacritin (SEQ ID NO:10) (protein)
chain: EDASSDSTGADPAQEAGTSKPNEEISGPAEPASPPETTTTAQETSAAAVQGTAKVTSSRQELNPLKSIVEKSILLTEQALAKAGKGMHGGVPGGKQFIENGSEF
modifications: homo sapiens
[4]
  mitogenic activity of deletion constructs: diminished; also recorded: partially active
